Earlier results on 14 molecules are cited in paper PMC7904743, “WIDOCK: a reactive docking protocol for virtual screening of covalent inhibitors” (Journal of Computer-Aided Molecular Design, 2021).

Like-named read-outs stand apart in the source and are kept apart here.

One data set relates to OTUB2. Particulars: OTUB2 protein labeling; experimental actives if % labeling higher than 50%; cited from earlier work.
A further data set deals with NUDT7. To be noted: protein labeling at 200 μM; experimental actives if % labeling higher than 50%; cited from earlier work.
For data set [1] the following is noted: thiol reactivity, cited from earlier work.
[2] abbreviates: natural log of average kinetic rate constant.
[3] abbreviates: natural log of average rate constant.

Turning to `O=C(CCl)N(c1ccc(F)cc1)C1C=CS(=O)(=O)C1` (centres unmarked) [PCM-0102868, O=C(CCl)N(c1ccc(F)cc1)C1C=CS(=O)(=O)C1], the OTUB2 % labeling in the data set with OTUB2 is reported as 0%. Besides, the NUDT7 % labeling with NUDT7 is 34%. Moreover, the “ln(avg k)” value in data set [1] (setting [2]) and in data set [1] (setting [3]) was -15.576 in each case.
As for `CN(C(=O)CCl)C1=CCCC1` [PCM-0102869, CN(C(=O)CCl)C1=CCCC1], the OTUB2 % labeling in the data set with OTUB2 is 0%. Also, in the data set on NUDT7, the NUDT7 % labeling is 0%. The “ln(avg k)” value in data set [1] (setting [2]) and in data set [1] (setting [3]) was -17.213 in each case.
Turning to `O=C(CCl)N1CCOCC1C1CC1` (centres unmarked) [PCM-0102870, O=C(CCl)N1CCOCC1C1CC1], the OTUB2 % labeling in the data set on OTUB2 is on record as 0%. For the same molecule, in the data set with NUDT7, the NUDT7 % labeling is listed as 17%. The “ln(avg k)” value in data set [1] (setting [2]) and in data set [1] (setting [3]) was -15.541 in each case.
For the molecule `O=C(CCl)NC1CCOc2ccccc21` (centres unmarked) [PCM-0102871, O=C(CCl)NC1CCOc2ccccc21], the OTUB2 % labeling in the data set with OTUB2 is recorded as 44%. In the data set on NUDT7, the NUDT7 % labeling is given as 0%. In addition, the “ln(avg k)” value in data set [1] (setting [2]) and in data set [1] (setting [3]) was -16.366 each time.
Consider `Cc1csc(NC(=O)CCl)n1` [PCM-0102872, Cc1csc(NC(=O)CCl)n1], for which the OTUB2 % labeling in the data set on OTUB2 is on record as 0%. In the data set on NUDT7, the NUDT7 % labeling was 16%. Further, the “ln(avg k)” value in data set [1] (setting [2]) and in data set [1] (setting [3]) was -15.785 throughout.
Regarding `O=C(CCl)Nc1cc(F)cc(F)c1` [PCM-0102874, O=C(CCl)Nc1cc(F)cc(F)c1], the OTUB2 % labeling with OTUB2 was 0%. The NUDT7 % labeling in the data set with NUDT7 is 18%. Also, the “ln(avg k)” value in data set [1] (setting [2]) and in data set [1] (setting [3]) was -15.799 in each case.
Consider `N#Cc1ccc(NC(=O)CCl)cc1` [PCM-0102875, N#Cc1ccc(NC(=O)CCl)cc1], for which, in the data set with OTUB2, the OTUB2 % labeling was 8%. Besides, the NUDT7 % labeling with NUDT7 is 14%. In addition, the “ln(avg k)” value in data set [1] (setting [2]) and in data set [1] (setting [3]) was -15.678 each time.
As for `Cc1ccccc1CN1CCN(C(=O)CCl)CC1` [PCM-0102876, Cc1ccccc1CN1CCN(C(=O)CCl)CC1], the OTUB2 % labeling in the data set with OTUB2 is on record as 0%. In addition, the NUDT7 % labeling with NUDT7 was 0%. Moreover, the “ln(avg k)” value in data set [1] (setting [2]) and in data set [1] (setting [3]) was -15.594 throughout.
Consider `CN(C)C(=O)c1ccc(NC(=O)CCl)cc1` [PCM-0102877, CN(C)C(=O)c1ccc(NC(=O)CCl)cc1], for which the OTUB2 % labeling in the data set with OTUB2 is given as 0%. The NUDT7 % labeling with NUDT7 is 0%. The “ln(avg k)” value in data set [1] (setting [2]) and in data set [1] (setting [3]) was -15.682 throughout.
In the case of `Cc1cc(C)c(C(C)NC(=O)CCl)cc1C` (centres unmarked) [PCM-0102879, Cc1cc(C)c(C(C)NC(=O)CCl)cc1C], the OTUB2 % labeling in the data set with OTUB2 was 17%. In addition, the NUDT7 % labeling in the data set on NUDT7 was 0%. Also, the “ln(avg k)” value in data set [1] (setting [2]) and in data set [1] (setting [3]) was -16.314 in each case.
Turning to `COC(=O)C1CN(C(=O)CCl)c2ccccc2O1` (centres unmarked) [PCM-0102880, COC(=O)C1CN(C(=O)CCl)c2ccccc2O1], the OTUB2 % labeling in the data set on OTUB2 is on record as 11%. For the same molecule, the NUDT7 % labeling in the data set on NUDT7 was 0%. Besides, the “ln(avg k)” value in data set [1] (setting [2]) and in data set [1] (setting [3]) was -17.563 throughout.
Turning to `O=C(CCl)NCC1COc2ccccc2O1` (centres unmarked) [PCM-0102881, O=C(CCl)NCC1COc2ccccc2O1], the OTUB2 % labeling with OTUB2 is on record as 39%. Besides, the NUDT7 % labeling in the data set on NUDT7 is 0%. Further, the “ln(avg k)” value in data set [1] (setting [2]) and in data set [1] (setting [3]) was -16.328 throughout.
As for `C=CC(=O)NC(=O)Nc1ccccc1` [PCM-0102883, C=CC(=O)NC(=O)Nc1ccccc1], in the data set with OTUB2, the OTUB2 % labeling is 0%. Moreover, the NUDT7 % labeling with NUDT7 is reported as 0%. Besides, the “ln(avg k)” value in data set [1] (setting [2]) and in data set [1] (setting [3]) was -16.619 throughout.
Regarding `O=C(CCl)NNC(=O)c1ccc([N+](=O)[O-])cc1` [PCM-0102885, O=C(CCl)NNC(=O)c1ccc([N+](=O)[O-])cc1], the OTUB2 % labeling in the data set on OTUB2 is listed as 21%. The NUDT7 % labeling with NUDT7 was 0%. Besides, the “ln(avg k)” value in data set [1] (setting [2]) and in data set [1] (setting [3]) was -16.970 in each case.
